This note sets out measurements from article PMC7036871, “Identification and Characterization of pantocin wh-1, a Novel Cyclic Polypeptide Produced by Pantoea dispersa W18” (Molecules, 2020).

The test system of series [1] is M. smegmatis mc^2 155. As to the kind of experiment: Antibacterial activity, microscale optical density assay (MODA) / microporous dilution. Type of series: cell-based, Mycobacterium smegmatis. Particulars: M. smegmatis mc2155, medium 7H9. The arrangement: key: -: no inhibitory activity; +: Inhibit the growth of less than 10% amount of the initial bacteria; ++: Inhibit the growth of less than 50% amount of the initial bacteria; +++: Inhibit the growth of initial bacteria completely. The procedure: (§1) In this paper, the microporous dilution method was used to detect the antibacterial spectrum of pantocin wh-1 against Gram-negative and -positive bacteria. […] The time kill studies were determined over 8 h with M. smegmatis mc^2 155 being exposed to 0.5, 1, 2, or 4 × MIC of pantocin wh-1. […] At 2 × MIC and 4 × MIC, pantocin wh-1 caused bacterial eradication was completed approximately after 4 h.
(§2) The antibacterial activity of the pantocin wh-1 was detected by the microscale optical density assay (MODA) method. Briefly, 90 μL of the dilutions of pantocin wh-1, 100 μL 2 × 7H9 medium, and 10 μL of a log phase indicator strain were co-incubated in the 96-well plate at 37 °C for 48 h. For control groups, 90 μL of the dilutions of pantocin wh-1 were replaced by an equal volume of sterile water. After incubation, the 96 well microplate was measured by a microplate reader at a 600 nm wavelength (Biotek synergyH1, Biotek, Winooski, VT, USA). The amount of pantocin wh-1 produced by P. dispersa W18 was determined using two fold dilutions. […] The results were expressed in AU/mL. The MIC was defined as the last dilution of pantocin wh-1 sufficient to prevent indicator strain growth in vitro.

A further series relates to M. tuberculosis H37Ra. The class given is cell-based, Mycobacterium tuberculosis. The following applies: M. tuberculosis Ra, medium 7H9. Also noted: key: -: no inhibitory activity; +: Inhibit the growth of less than 10% amount of the initial bacteria; ++: Inhibit the growth of less than 50% amount of the initial bacteria; +++: Inhibit the growth of initial bacteria completely.

For series [2], the system named is M. smegmatis mc^2 155. The experiment in a line: Time kill study. The class given is cell-based, Mycobacterium smegmatis. The method, then: as §1
For detection of the time kill study, 100 μL of the indicator strain in exponential phase were added to tubes containing 5 mL of the modified 7H9 medium with pantocin wh-1 at 0.5, 1, 2, and 4 × MIC. No pantocin wh-1 was added in the control tube, then incubated at 37 °C for 8 h. At the end of each time period, tenfold serial dilutions were prepared with 0.5 mM phosphate buffer, and 100 μL cultures were plated in triplicate onto the 7H10 plates. For anti-tuberculosis activities in vivo, an auto-luminescent strain of M. tuberculosis H37Ra (AlRa) described by Tianyu Zhang was used to assess the efficacy of pantocin wh-1 in a mouse model. The relative light unit (RLU) count was determined to parallel CFU counts during the active phase of bacterial growth. AlRa with OD600 of 0.1 was injected into female BALB/c mice by tail vein. The day after injection (Day 0), RLU values were detected for 6 days in triplicate.

In a further series the target is proteinase K (Parengyodontium album, UniProt P06873). As to the kind of experiment: Effect of enzymes on antibacterial activity: proteinase K. The class given is in vitro ADME. The source says:
(§3) Furthermore, the antibacterial activity of pantocin wh-1 also retained nearly 100% of the initial activity within a broad pH range (pH 2–12).
(§4) The effect of various enzymes, pH, and temperature on pantocin wh-1 activity was detected as described by J.-M. Chobert et al. with a slight modification. Proteinase K, trypsin, catalase, lysozyme, DNAse, and RNAse were used to test the antibacterial activity of pantocinwh-1. To analyze the effect of different pH values on the antibacterial activity of pantocin wh-1, the sample of pantocin wh-1 was exposed to buffer with a pH value of 2–12 for 1 h at 25 °C. The effect of temperature on the anti-mycobacterial activity of pantocin wh-1 was determined by incubating pantocin wh-1 at 50 °C and 100 °C for 60 min, as well as at 121 °C for 15 min, and then detecting the bactericidal activity against M. smegmatis mc^2 155.

The next series relates to lysozyme. The experiment in a line: Effect of enzymes on antibacterial activity: lysozyme. Type of series: in vitro ADME.
Text: as §3, §4

Series [3] is described as follows: Effect of heat on antibacterial activity. Particulars: for Residual activity: compared with antimicrobial activity before the treatment. The class given is physicochemical.
Text: as §3
as §4, with “[…],” for “anti-mycobacterial activity of pantocin wh-1 was determined by incubating pantocin wh-1 at 50 °C and 100 °C for 60 min,”

Another series has as its system S. aureus B30. The experiment in a line: Antimicrobial spectrum, microporous dilution method. The class given is cell-based. The arrangement: key: -: no inhibitory activity; +: Inhibit the growth of less than 10% amount of the initial bacteria; ++: Inhibit the growth of less than 50% amount of the initial bacteria; +++: Inhibit the growth of initial bacteria completely. Particulars: S. aureus B30, medium LB. The method, then:
as §1, §2

The subject of another series is S. suis. Described as above. Type of series: cell-based, Streptococcus suis. The method, then: as §1, §2
The subject of a further series is M. bovis BCG. Type of series: cell-based. The arrangement: key: -: no inhibitory activity; +: Inhibit the growth of less than 10% amount of the initial bacteria; ++: Inhibit the growth of less than 50% amount of the initial bacteria; +++: Inhibit the growth of initial bacteria completely. Particulars: medium 7H9.

Each structure is given as a SMILES string. Where a SMILES comes first, the peptide text is derived from it. Bounds are passed on as bounds.

proteinase K, sequence (P06873 106-384): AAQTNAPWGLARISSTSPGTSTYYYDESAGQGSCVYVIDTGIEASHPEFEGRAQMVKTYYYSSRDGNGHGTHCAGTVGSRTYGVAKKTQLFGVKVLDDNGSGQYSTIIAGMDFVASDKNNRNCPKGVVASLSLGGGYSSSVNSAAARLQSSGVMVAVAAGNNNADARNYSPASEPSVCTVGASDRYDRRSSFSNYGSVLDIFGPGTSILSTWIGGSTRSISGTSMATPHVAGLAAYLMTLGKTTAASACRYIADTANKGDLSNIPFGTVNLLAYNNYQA

Take `CSCC[C@@H]1NC(=O)[C@H](C(C)C)NC(=O)[C@H](Cc2c[nH]c3ccccc23)NC(=O)[C@H](C(C)C)NC(=O)[C@H](C)NC(=O)[C@H](CS)NC(=O)[C@H](CC(N)=O)NC(=O)[C@H](Cc2ccccc2)NC(=O)CNC(=O)[C@H](Cc2ccc(O)cc2)NC(=O)CNC(=O)[C@H](Cc2ccccc2)NC(=O)[C@H](C(C)C)NC(=O)[C@H](Cc2ccc(O)cc2)NC(=O)[C@H](CS)NC(=O)[C@H](Cc2c[nH]c3ccccc23)NC1=O` [pantocin wh-1] (cyclo(AVWVMWCYVFGYGFNC)): the Inhibition activity result is listed as “+++” in the series on M. smegmatis mc^2 155 [1]; “+++” with M. tuberculosis H37Ra; “-” in the series with S. aureus B30; “+ (Inhibit the growth of less than 10% amount of the initial bacteria)” in the series on S. suis (S. suis, medium BHI); “+++” with M. bovis BCG. In addition, the “decline in colony forming units (CFU)” value in the series on M. smegmatis mc^2 155 [2] (0.5 and 1 × MIC, within the first 2 h, followed by bacterial regeneration to near the initial concentration) was over 3 log. Also, the “time to completed bacterial eradication” value in the series with M. smegmatis mc^2 155 [2] (2 × MIC and 4 × MIC) is recorded as about 4 h. Moreover, at proteinase K, the “inhibitory activity after proteinase K” value is given as “inactivated completely”. The “antibacterial activity after lysozyme” value in the series with lysozyme (lysozyme) is listed as “insensitive”. The Residual activity with lysozyme (lysozyme treatment, compared with antimicrobial activity before the treatment) was 100%; in [3] (Heat 50℃/ 30 min) it was 100%; in series [3] (Heat 100℃/ 30 min), 90%; in [3] (Heat 121℃/ 15 min), 72%. The compound also had a retained activity in [3] (autoclaving at 121 °C for 30 min) of 72%. For the same compound, the “heat stability” value in series [3] (incubation at 100 °C for 30 min) was “heat stable”. Also, the “inhibitory activity” value with S. suis (Streptococcus suis) is reported as “partial inhibitory activity”.
